# Results reported in patent publication US10440974B2, “Methionine-rich composition for feeding animals” (Evonik Degussa GmbH, priority 2009, dated 2019).
# Assays:
# broiler chickens = system: broiler chickens
# Description: The crude methionine previously obtained in solid form is added to a basic feed for broiler chickens.
# The basic feed has the following composition:
# The animals are divided up into groups and fed with the basic feed as control, or with a feed supplemented with crude methionine according to the invention, and then weighed at 1 day, 14 days and 28 days.
# physchem = experiment: physchem
# Excerpt: The third step consists in crystallizing the methionine so as to recover the crude methionine in solid form. This crystallization step can be carried out by means of technology chosen from the group consisting of crystallization by cooling, crystallization by evaporation-crystallization and adiabatic crystallization. The applicant company recommends using evaporation-crystallization. If evaporation-crystallization is selected, the applicant company recommends pre-concentrating the crude methionine solution by vacuum evaporation using a falling-film evaporator in order to approach supersaturation. The pre-concentrated solution is therefore transferred into a crystallizer of Draft tube type, for example, so as to be further concentrated and crystallized therein. […] Under these conditions, and by virtue of the removal of the soluble impurities, the solid methionine crystallizes in the form of spongy spheres which are easy to separate from the mother liquors.
solubility (physchem; 35 °C) [mg/mL],supersaturation (physchem; at 50° C.) [g/L],SMILES,"optimum efficiency, added methionine (broiler chickens; added to basic feed)","optimum efficiency, methionine in the final feed (broiler chickens; basic feed has a methionine content of about 0.29%)"
–,–,"CSCCC(N)C(=O)O (racemic) [DL-methionine of chemical origin, DL-methionine]",approximately 0.19%,approximately 0.48%
~70,80,"CSCC[C@H](N)C(=O)O [methionine, L-Methionine]",–,–
